{"source": "patent US20230399313A1", "about": "“BIOLOGICAL ACTIVITIES OF 5-(2-(4-(4-FLUORO-2-METHYL-1H-INDOL-5-YLOXY)-6-METHOXYQUINOLIN-7-YLOXY)ETHYL)-5-AZASPIRO[2.4]-HEPTAN-7-OL CRYSTALLINE, PHOSPHORIC ACID SALT AND ITS ENANTIOMERS” (Advenchen Pharmaceuticals, LLC, priority 2022, published 2023)", "key": {"SCLC NCI-H1436": {"test_system": "SCLC NCI-H1436", "assay": "In vivo xenograft model", "set-up": "species or system nude mouse", "settings": "oral daily 14-21 days, tumor weight vs control", "protocol": "(§1) Animal antitumor activity in vivo xenograft models with various tumor cell lines (SCLC NCI-H1436, NSCLC 95-D, ovarian SKVO3, renal 786-O, liver Bel-7420, brain U87) were performed as follows: The well grown tumor tissues of tumor cell lines were cut into 3 mm pieces, and each nude mouse was subcutaneously inoculated with one piece into the right flank. The animals were grouped and administered at pre-designed dosing. Treatments were initiated when the tumor size reached above 100 mm^3 after 10-14 days. According to the size of tumor, the animals with oversize or undersize tumors were eliminated, and the animals were grouped with similar average tumor volume. Then the animals were orally administrated daily for continuous 14-21 days. The large diameter a (mm) and the small diameter b (mm) were measured with caliper twice a week after inoculation for 13 days. Each tumor volume was calculated by formular: TV=ab^2/2 and the relative tumor volume was calculated as: RTV=Vt/Vo, Vo represents the tumor volume on the first day of treatment; Vt represents the tumor volume on each measurement day. The animals were executed and tumors were extracted by dissection 20-30 days after inoculation. The individual body weight and tumor weight were determined and calculated. Tumor Inhibit percentage was calculated as [1−((TWt)/(TWc)×100%, where TWt represents mean tumor weight of a treated group on the last day during the experiment, TWc represents mean tumor weight of the control group on the last day during the experiment. Experimental dosing and efficacy results are shown in FIGS. 19-24 of Drawing. The best tumor inhibition percentage ranges are >70% to 100%."}, "brain U87": {"test_system": "brain U87", "assay": "In vivo xenograft model", "set-up": "species or system nude mouse", "settings": "oral daily 14-21 days, tumor weight vs control", "protocol": "as §1"}, "ovarian SKVO3": {"test_system": "ovarian SKVO3", "assay": "In vivo xenograft model", "set-up": "species or system nude mouse", "settings": "oral daily 14-21 days, tumor weight vs control", "protocol": "as §1"}, "liver Bel-7420": {"test_system": "liver Bel-7420", "assay": "In vivo xenograft model", "set-up": "species or system nude mouse", "settings": "Bel-7420 xenograft, oral daily 14-21 days, tumor weight vs control", "protocol": "as §1"}, "NSCLC 95-D": {"test_system": "NSCLC 95-D", "assay": "In vivo xenograft model", "set-up": "species or system nude mouse", "settings": "95-D xenograft, oral daily 14-21 days, tumor weight vs control", "protocol": "as §1"}, "renal 786-O": {"test_system": "renal 786-O", "assay": "In vivo xenograft model", "set-up": "species or system nude mouse", "settings": "786-O xenograft, oral daily 14-21 days, tumor weight vs control", "protocol": "as §1"}, "K562": {"test_system": "K562", "assay": "In vitro MTT (proliferation) assay", "assay_type": "cell-based", "settings": "Homo sapiens, Blood"}, "SKBR3": {"test_system": "SKBR3", "assay": "In vitro MTT (proliferation) assay", "assay_type": "cell-based", "settings": "Homo sapiens, SK-BR-3, Breast"}, "SGC7901": {"test_system": "SGC7901", "assay": "In vitro MTT (proliferation) assay", "assay_type": "cell-based", "settings": "Homo sapiens, SGC-7901, Stomach"}, "SKOV3": {"test_system": "SKOV3", "assay": "In vitro MTT (proliferation) assay", "assay_type": "cell-based", "settings": "Homo sapiens, SK-OV-3; Ovary, SKOV3; read-out: IC50", "protocol": "(§2) The inhibitions of Compound A-Xln, Compound A-P-Xln and two chiral isomers (Compound R-A, Compound S-A) to cancer cell lines are tested via in vitro MTT assay. Cancer cell lines are selected from PANC-1, NCI-H157, MDA-MB-231, Hela, PC-3, BEL7404, MKN45, Ishikawa, Saos-2, SKOV3, SW579 and HCT116 cell lines. The IC50 values are in the micromole scale.\n(§3) In vitro MTT (proliferation) assay was performed with compound from above examples to give following inhibition results: […]"}, "U937": {"test_system": "U937", "assay": "In vitro MTT (proliferation) assay", "assay_type": "cell-based", "settings": "Homo sapiens, U-937, Blood", "protocol": "as §2, §3"}, "HCT-116": {"test_system": "HCT-116", "assay": "In vitro MTT (proliferation) assay", "assay_type": "cell-based", "settings": "Homo sapiens, Colon, read-out: IC50", "protocol": "as §2, §3"}, "MDA-MB-231": {"test_system": "MDA-MB-231", "assay": "In vitro MTT (proliferation) assay", "assay_type": "cell-based", "settings": "Homo sapiens; Breast, MDA-MB-231; read-out: IC50", "protocol": "as §2, §3"}, "Hela": {"test_system": "Hela", "assay": "In vitro MTT (proliferation) assay", "assay_type": "cell-based", "settings": "Homo sapiens; Cervix, Hela; read-out: IC50", "protocol": "as §2, §3"}, "[1]": {"test_system": "breast cancer cell line BT474", "assay": "Combination therapy MTT assay", "assay_type": "cell-based, human", "settings": "BT474, combined with aromatase inhibitors Anatrozole and Letrozole, 72 h", "protocol": "(§4) Compound A-Xln combination therapy MTT assay results were investigated. 100 μl of cell suspension with a concentration of 5×10^4 cells/ml was added to each well of a 96-well plate, and place in a 37° C., 5% CO2 incubator. After 24 h, Compound A-Xln sample solution was added according to Table 13, 10 μl/well for double-duplicate wells. After 72 hours at 37° C. and 5% CO2 incubation, 20 μl of 5 mg/ml MTT solution was added to each well, then 100 µl/well of dissolving solution was added after 4 hours. The samples were put in an incubator, and a full-wavelength multifunctional enzyme label machine was used after dissolving. The OD value at 570 nm was measured."}, "[2]": {"test_system": "breast cancer cell line MCF7", "assay": "Combination therapy MTT assay", "assay_type": "cell-based, human", "settings": "MCF7, combined with aromatase inhibitors Anatrozole and Letrozole, 72 h", "protocol": "as §4"}, "SMMC-7721": {"test_system": "SMMC-7721", "assay": "In vitro MTT (proliferation) assay", "assay_type": "cell-based", "settings": "Homo sapiens, Liver"}, "[3]": {"assay": "Stability of amorphous and crystalline form API at 60° C. (HPLC related substances)", "assay_type": "physicochemical", "protocol": "The samples of amorphous and crystalline form API of Compound A were placed in clean containers and the environmental temperature was controlled at 60° C. The purity of amorphous (Compound A-Amp) and crystalline form (Compound A-Xln) of Compound A were tested at Day 0, Day 10 and Day 30. Samples of amorphous and crystalline form APIs were measured, and the appropriate amount of diluent was added to dissolve with sonication. The concentration was controlled at 0.2 mg/ml and the purification was determined by HPLC with UV detector at 230 nm. Results were listed in the table as follows and the fitted curve is in Drawing Sections as FIG. 6."}, "786-O": {"test_system": "786-O", "assay": "In vitro MTT (proliferation) assay", "assay_type": "cell-based", "settings": "Homo sapiens, 786-0, Kidney"}, "BEL-7402": {"test_system": "BEL-7402", "assay": "In vitro MTT (proliferation) assay", "assay_type": "cell-based", "settings": "Homo sapiens, Liver"}, "A2780": {"test_system": "A2780", "assay": "In vitro MTT (proliferation) assay", "assay_type": "cell-based", "settings": "Homo sapiens, Ovary"}, "[4]": {"settings": "high temperature 60° C., 10 days"}, "[5]": {"settings": "high temperature 60° C., 30 days"}}}
{"smiles": "COc1cc2c(Oc3ccc4[nH]c(C)cc4c3F)ccnc2cc1OCCN1CC(O)C2(CC2)C1", "note": "(stereo not drawn) [Compound A-Xln, 5-(2-(4-(4-fluoro-2-methyl-1H-indol-5-yloxy)-6-methoxyquinolin-7-yloxy)ethyl)-5-azaspiro[2.4]-heptan-7-ol]", "values": [{"measurement": "best tumor inhibition percentage", "setting": "SCLC NCI-H1436", "result": "> 70", "unit": "%"}, {"measurement": "best tumor inhibition percentage", "setting": "brain U87", "result": "> 70", "unit": "%"}, {"measurement": "best tumor inhibition percentage", "setting": "ovarian SKVO3", "result": "> 70", "unit": "%"}, {"measurement": "best tumor inhibition percentage", "setting": "liver Bel-7420", "result": "> 70", "unit": "%"}, {"measurement": "best tumor inhibition percentage", "setting": "NSCLC 95-D", "result": "> 70", "unit": "%"}, {"measurement": "best tumor inhibition percentage", "setting": "renal 786-O", "result": "> 70", "unit": "%"}, {"measurement": "IC50", "setting": "K562", "result": "6.37 ± 2.56", "unit": "µM"}, {"measurement": "IC50", "setting": "SKBR3", "result": "12.2 ± 2", "unit": "µM"}, {"measurement": "IC50", "setting": "SGC7901", "result": "6.64 ± 0.81", "unit": "µM"}, {"measurement": "IC50", "setting": "SKOV3", "result": "17.1 ± 0.55", "unit": "µM"}, {"measurement": "IC50", "setting": "U937", "result": "10 ± 2.28", "unit": "µM"}, {"measurement": "IC50", "setting": "HCT-116", "result": "11.7 ± 3.69", "unit": "µM"}, {"measurement": "IC50", "setting": "MDA-MB-231", "result": "7.77 ± 0.02", "unit": "µM"}, {"measurement": "IC50", "setting": "Hela", "result": "11.2 ± 2.71", "unit": "µM"}, {"measurement": "Proliferation inhibition in combination", "setting": "[1]", "result": "increased"}, {"measurement": "Proliferation inhibition in combination", "setting": "[2]", "result": "increased"}, {"measurement": "IC50", "setting": "SMMC-7721", "result": "8.01 ± 2.53", "unit": "µM"}, {"measurement": "Maximum impurities (%)", "setting": "[3]; 0 day", "result": 0.032, "unit": "%"}, {"measurement": "Total impurities (%)", "setting": "[3]; 0 day", "result": 0.078, "unit": "%"}, {"measurement": "Stability compared with the amorphous form", "setting": "[3]; 60° C., up to 30 days", "result": "better stability than A-Amp"}, {"measurement": "Maximum impurities (%)", "setting": "[3]; [4]", "result": 0.039, "unit": "%"}, {"measurement": "Total impurities (%)", "setting": "[3]; [4]", "result": 0.115, "unit": "%"}, {"measurement": "Maximum impurities (%)", "setting": "[3]; [5]", "result": 0.063, "unit": "%"}, {"measurement": "Total impurities (%)", "setting": "[3]; [5]", "result": 0.194, "unit": "%"}, {"measurement": "IC50", "setting": "786-O", "result": "10.1 ± 3.97", "unit": "µM"}, {"measurement": "IC50", "setting": "BEL-7402", "result": "0.86 ± 0.15", "unit": "µM"}, {"measurement": "IC50", "setting": "A2780", "result": "2.63 ± 0.27", "unit": "µM"}]}
